Source: ChEMBL document CHEMBL3045208, “Synthesis and Inhibitory Effect on Photosynthetic Electron Transport of 1,3,5-Triazinylcarboxylic Acid Derivatives” (J Pestic Sci, 2005)

How the values were obtained:
[1] = molecular target: Chloroplast thylakoid membrane protein (psbA) (Chenopodium album) (UniProt Q31945); experiment: Selectivity ratio of I50 for photosynthetic electron transport protein complex in atrazine-resistant Chenopodium album thylakoid to I50 for photosynthetic electron transport protein complex in wild type Chenopodium album thylakoid
[2] = Inhibition of photosynthetic electron transport protein complex in Spinacia oleracea (spinach) leaf thylakoid
[3] = molecular target: Photosystem II protein D1 (Spinacia oleracea, UniProt P69560); experiment: Inhibition of photosynthetic electron transport protein complex in Spinacia oleracea (spinach) leaf thylakoid

Chloroplast thylakoid membrane protein (psbA) (Chenopodium album), sequence (Q31945 1-69): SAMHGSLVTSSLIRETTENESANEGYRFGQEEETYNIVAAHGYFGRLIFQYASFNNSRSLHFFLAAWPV

| SMILES | Selectivity ratio [1] | pI50 [2] | pI50 [3] |
| --- | --- | --- | --- |
| Cc1nc(NCc2ccccc2)nc(C(F)F)n1 | 2.5 | 5.63 | – |
| C#CCNc1nc(C)nc(C(=O)OCC)n1 | 1.23 | – | – |
| COC(=O)c1nc(C)nc(NCc2ccccc2)n1 | – | – | 4 |
| CCOC(=O)c1nc(C)nc(NC(C)C)n1 | 2.45 | – | 6.11 |
| CCOC(=O)c1nc(C)nc(NC(C)CC)n1 (centres undefined) | – | – | 4.37 |
| Cc1nc(CF)nc(NCc2ccccc2)n1 | – | 4.98 | – |
| Cc1nc(NCc2ccccc2)nc(C(F)(F)F)n1 | 2.6 | 6.85 | – |
| CCNc1nc(Cl)nc(NC(C)C)n1 [ATRAZINE] | 324 | 6.73 | – |
| CCOC(=O)c1nc(C)nc(NCc2ccccc2)n1 | 0.98 | – | 4.88 |
